Data taken from patent US8993574B2, “Pyrrole antifungal agents” (F2G Ltd, priority 2008, dated 2015).
Converted amounts (≈) assume the structure as drawn.

How the values were obtained:
Type in all cases: cell-based
Aspergillus flavus [1] = assay: MIC, YAG medium; settings: 24 h at 35° C, MIC banded into grades; for MIC: Aspergillus flavus, 24 h, read-out: MIC grade, A. flavus
Experimental: (§1) Between 1 and 5 mgs of compound were accurately weighed out into a sterile Eppendorf tube. The compound was dissolved in DMSO to give a solution containing 5 mg/mL. Tubes were stored at −20° C. until required.
(§2) On the day of testing thawed solutions were vortex mixed to ensure homogeneity. 30 μL of solution was removed and added to 570 μL of sterile water in a separate sterile Eppendorf. The thoroughly mixed solution was used to prepare a series of doubling dilutions in water, in a deep well plate. Thirteen replicate plates were prepared using a Minitrak by aspirating 20 μL from each well into eleven clear polystyrene 96 well plates.
(§3) Spores of Aspergillus spp. (Aspergillus fumigatus [two strains], Aspergillus terreus [two strains], Aspergillus niger and Aspergillus flavus) were harvested from cultures grown on Sabarauds agar for 5 days, and resuspended in PBS/Tween 80 to approx 1×10^7 cfu/mL. Each organism suspension was diluted in YAG medium (1% glucose, 1% ammonium chloride and 0.5% yeast extract) to 0.5−2×10^4 cfu/mL. 80 μL of an organism suspension was added to each well of the plate containing drug dilutions.
(§4) This produced MIC plates with a drug range 50-0.05 mg/L and organism inocula of 1−2×10^4 cfu/mL for Aspergillus spp. All plates were incubated for 24 h at 35° C. Growth was assessed by monitoring the optical density at 485 nm for each well. The MIC of a compound is the lowest drug concentration that inhibits growth of an organism by >70% compared with a drug free control. MICs are recorded as mg/L. In cases where the MIC of an organism is […] mg/L the MIC is repeated using a concentration range of 0.5-0.0005 mg/L.
(§5) The following organisms were tested: Aspergillus flavus, Aspergillus fumigatus AF293 and AF210, Aspergillus niger, Aspergillus terreus AT4 and AT49, Candida albicans, Candida glabrata, Candida krusei, Candida parapsilosis and Candida tropicalis.

[2] = tested on: Aspergillus fumigatus AF210; assay: MIC, YAG medium; settings: 24 h at 35° C, MIC banded into grades; for MIC: Aspergillus fumigatus, read-out: MIC grade, A. fumigatus 210
Experimental: as §1, §2, §3, §4, §5

[3] = tested on: Aspergillus fumigatus AF293; assay: MIC, YAG medium; settings: 24 h at 35° C, MIC banded into grades; for MIC: Aspergillus fumigatus, read-out: MIC grade, A. fumigatus
Experimental: as §1, §2, §3, §4, §5

Aspergillus niger [4] = assay: MIC, YAG medium; settings: 24 h at 35° C, MIC banded into grades; for MIC: Aspergillus niger, read-out: MIC grade, A. niger
Experimental: as §1, §2, §3, §4, §5

Aspergillus terreus AT49 [5] = assay: MIC, YAG medium; settings: 24 h at 35° C, MIC banded into grades; for MIC: Aspergillus terreus, read-out: MIC grade, A. terreus 49
Experimental: as §1, §2, §3, §4, §5

Aspergillus terreus AT4 [6] = assay: MIC, YAG medium; settings: 24 h at 35° C, MIC banded into grades; for MIC: Aspergillus terreus, read-out: MIC grade, A. terreus
Experimental: as §1, §2, §3, §4, §5

Aspergillus flavus [7] = assay: MIC, RPMI medium; settings: MIC banded into grades; for MIC: Aspergillus flavus, read-out: MIC grade, A. flavus
Experimental: as §1, §2
(§6) Assays were also performed in RPMI medium for both Aspergillus spp. (strains described above) and Candida spp. (Candida albicans, Candida glabrata, Candida krusei, Candida parapsilosis and Candida tropicalis). To perform MIC tests in this medium, dilutions of compounds are prepared in microtitre plates as described above. Fungal strains to be tested are grown and harvested in an identical manner to that described above, and each organism suspension was diluted in RPMI medium, containing 2% glucose and 0.135 M MOPS buffer (pH 7.0) to 0.5-2×10^4 cfu/mL, rather than in YAG medium. 80 μL of an organism suspension was added to each well of the plate containing drug dilutions.
(§7) This produced MIC plates with a drug range 50-0.05 mg/L and organism inocula of 1−2×10^4 cfu/mL. All plates were incubated for 24-48 h at 35° C. Growth was assessed by monitoring the optical density at 485 nm for each well. The MIC of a compound is the lowest drug concentration that inhibits growth of an organism by >80% compared with a drug free control.
as §5

[8] = tested on: Aspergillus fumigatus AF210; assay: MIC, RPMI medium; settings: for MIC: Aspergillus fumigatus, AF210, MIC banded into grades, read-out: MIC grade, A. fumigatus 210
Experimental: as §1, §2, §6, §7, §5

[9] = tested on: Aspergillus fumigatus AF293; assay: MIC, RPMI medium; settings: for MIC: Aspergillus fumigatus, AF293, MIC banded into grades, read-out: MIC grade, A. fumigatus
Experimental: as §1, §2, §6, §7, §5

Aspergillus niger [10] = assay: MIC, RPMI medium; settings: MIC banded into grades; for MIC: Aspergillus niger, read-out: MIC grade, A. niger
Experimental: as §1, §2, §6, §7, §5

Aspergillus terreus AT49 [11] = assay: MIC, RPMI medium; settings: for MIC: Aspergillus terreus, AT49, MIC banded into grades, read-out: MIC grade, A. terreus 49
Experimental: as §1, §2, §6, §7, §5

Aspergillus terreus AT4 [12] = assay: MIC, RPMI medium; settings: for MIC: Aspergillus terreus, AT4, MIC banded into grades, read-out: MIC grade, A. terreus
Experimental: as §1, §2, §6, §7, §5

MIC (Aspergillus flavus [1]) [µg/mL] | MIC [2] [µg/mL] | MIC [3] [µg/mL] | MIC (Aspergillus niger [4]) [µg/mL] | MIC (Aspergillus terreus AT49 [5]) [µg/mL] | MIC (Aspergillus terreus AT4 [6]) [µg/mL] | MIC (Aspergillus flavus [7]) [µg/mL] | MIC [8] [µg/mL] | MIC [9] [µg/mL] | MIC (Aspergillus niger [10]) [µg/mL] | MIC (Aspergillus terreus AT49 [11]) [µg/mL] | MIC (Aspergillus terreus AT4 [12]) [µg/mL] | Compound | also measured
< 1 | < 1 | < 1 | < 1 | < 1 | < 1 | < 1 | < 1 | < 1 | < 1 | < 1 | < 1 | Cc1cc(-c2ccccc2)c(C(=O)C(=O)Nc2ccc(N3CCCCC3)c(F)c2)n1C [Example 115, 2-(1,5-Dimethyl-3-phenyl-1H-pyrrol-2-yl)-N-(3-fluoro-4-piperidin-1-yl-phenyl)-2-oxo-acetamide] | –
1 to 10 (≈ 1.72 to 17.2 µM) | < 1 | < 1 | < 1 | < 1 | < 1 | 1 to 10 (≈ 1.72 to 17.2 µM) | < 1 | < 1 | 1 to 10 (≈ 1.72 to 17.2 µM) | 1 to 10 (≈ 1.72 to 17.2 µM) | 1 to 10 (≈ 1.72 to 17.2 µM) | COCCOCn1c(C)cc(-c2ccccc2)c1C(=O)C(=O)Nc1ccc(N2CCN(c3cc(C)cc(C)n3)CC2)cc1 [Example 138, N-{4-[4-(4,6-Dimethyl-pyridin-2-yl)-piperazin-1-yl]-phenyl}-2-[1-(2-methoxy-ethoxymethyl)-5-methyl-3-phenyl-1H-pyrrol-2-yl]-2-oxo-acetamide] | –
< 1 | < 1 | < 1 | < 1 | < 1 | < 1 | < 1 | < 1 | < 1 | < 1 | < 1 | < 1 | Cc1cc(C)nc(N2CCN(c3ccc(NC(=O)C(=O)c4c(-c5ccccc5)cc5n4CCOC5)cc3)CC2)c1 [Example 7, N-{4-[4-(4,6-Dimethyl-pyridin-2-yl)-piperazin-1-yl]-phenyl}-2-oxo-2-(7-phenyl-3,4-dihydro-1H-pyrrolo[2,1-c][1,4]oxazin-6-yl)-acetamide] | –
> 10 | > 10 | > 10 | > 10 | > 10 | > 10 | > 10 | > 10 | > 10 | > 10 | > 10 | > 10 | COCCc1cc(C)n(-c2ccccc2)c1C(=O)C(=O)Nc1ccc(N2CCN(c3cc(C)cc(C)n3)CC2)cc1 [Example 80, N-{4-[4-(4,6-Dimethyl-pyridin-2-yl)-piperazin-1-yl]-phenyl}-2-[3-(2-methoxy-ethyl)-5-methyl-1-phenyl-1H-pyrrol-2-yl]-2-oxo-acetamide] | –
> 10 | 1 to 10 (≈ 3.18 to 31.8 µM) | > 10 | > 10 | 1 to 10 (≈ 3.18 to 31.8 µM) | 1 to 10 (≈ 3.18 to 31.8 µM) | > 10 | > 10 | > 10 | > 10 | > 10 | > 10 | CCCNC(=O)C(=O)c1cc(-c2ccccc2)cn1CCOC [Example 121, 2-[1-(2-Methoxy-ethyl)-4-phenyl-1H-pyrrol-2-yl]-2-oxo-N-propyl-acetamide] | –
< 1 | < 1 | < 1 | < 1 | < 1 | < 1 | < 1 | < 1 | < 1 | < 1 | < 1 | < 1 | Cc1ccnc(N2CCN(c3ccc(NC(=O)C(=O)c4c(-c5ccccc5)cc(C)n4C)cc3)CC2)c1 [Example 40, 2-(1,5-Dimethyl-3-phenyl-1H-pyrrol-2-yl)-N-{4-[4-(4-methyl-pyridin-2-yl)-piperazin-1-yl]-phenyl}-2-oxo-acetamide] | –
< 1 | < 1 | < 1 | < 1 | < 1 | < 1 | 1 to 10 (≈ 1.81 to 18.1 µM) | 1 to 10 (≈ 1.81 to 18.1 µM) | 1 to 10 (≈ 1.81 to 18.1 µM) | 1 to 10 (≈ 1.81 to 18.1 µM) | 1 to 10 (≈ 1.81 to 18.1 µM) | 1 to 10 (≈ 1.81 to 18.1 µM) | CCc1cc(-c2ccccc2)c(C(=O)C(=O)Nc2ccc(N3CCN(c4cc(C)cc(C)n4)CC3)cc2)n1COC [Example 125, N-{4-[4-(4,6-Dimethyl-pyridin-2-yl)-piperazin-1-yl]-phenyl}-2-(5-ethyl-1-methoxymethyl-3-phenyl-1H-pyrrol-2-yl)-2-oxo-acetamide] | –
– | – | – | – | – | – | – | – | – | – | – | – | COC(=O)Cn1c(C)cc(-c2ccccc2)c1C(=O)C(=O)Nc1ccc(N2CCN(c3cc(C)cc(C)n3)CC2)cc1Cl [Example 98, (2-{2-Chloro-4-[4-(4,6-dimethyl-pyridin-2-yl)-piperazin-1-yl]-phenylaminooxalyl}-5-methyl-3-phenyl-pyrrol-1-yl)-acetic acid methyl ester] | MIC grade, A. flavus (Aspergillus flavus [1]): 1 (a grade of 1 represents an MIC of greater than 10 mg/L); MIC grade, A. fumigatus 210 [2]: 3 (A grade of 3 represents an MIC of less than 1 mg/L); MIC grade, A. fumigatus [3]: 3 (A grade of 3 represents an MIC of less than 1 mg/L); MIC grade, A. niger (Aspergillus niger [4]): 3 (A grade of 3 represents an MIC of less than 1 mg/L); MIC grade, A. terreus 49 (Aspergillus terreus AT49 [5]): 3 (A grade of 3 represents an MIC of less than 1 mg/L); MIC grade, A. terreus (Aspergillus terreus AT4 [6]): 3 (A grade of 3 represents an MIC of less than 1 mg/L); MIC grade, A. flavus (Aspergillus flavus [7]): 2 (A grade of 2 represents an MIC of from 1 to 10 mg/L); MIC grade, A. fumigatus 210 ([8]; MIC banded into grades): 3 (A grade of 3 represents an MIC of less than 1 mg/L); MIC grade, A. fumigatus ([9]; MIC banded into grades): 3 (A grade of 3 represents an MIC of less than 1 mg/L); MIC grade, A. niger (Aspergillus niger [10]): 3 (A grade of 3 represents an MIC of less than 1 mg/L); MIC grade, A. terreus 49 (Aspergillus terreus AT49 [11]; MIC banded into grades): 3 (A grade of 3 represents an MIC of less than 1 mg/L); MIC grade, A. terreus (Aspergillus terreus AT4 [12]; MIC banded into grades): 3 (A grade of 3 represents an MIC of less than 1 mg/L)
1 to 10 (≈ 2.4 to 24 µM) | 1 to 10 (≈ 2.4 to 24 µM) | 1 to 10 (≈ 2.4 to 24 µM) | 1 to 10 (≈ 2.4 to 24 µM) | 1 to 10 (≈ 2.4 to 24 µM) | > 10 | > 10 | > 10 | > 10 | > 10 | > 10 | > 10 | Cc1cc(C)nc(N2CCN(c3ccc(NC(=O)C(=O)c4ccc(C)[nH]4)cc3)CC2)c1 [Example 4, N-{4-[4-(4,6-Dimethyl-pyridin-2-yl)-piperazin-1-yl]-phenyl}-2-(5-methyl-1H-pyrrol-2-yl)-2-oxo-acetamide] | –
1 to 10 (≈ 1.7 to 17 µM) | < 1 | < 1 | 1 to 10 (≈ 1.7 to 17 µM) | 1 to 10 (≈ 1.7 to 17 µM) | 1 to 10 (≈ 1.7 to 17 µM) | > 10 | > 10 | < 1 | 1 to 10 (≈ 1.7 to 17 µM) | > 10 | > 10 | Cc1cc(C)nc(N2CCN(c3ccc(NC(=O)C(=O)c4c(-c5ccccc5)cc(C)n4Cc4coc(C)n4)cc3)CC2)c1 [Example 146, N-{4-[4-(4,6-Dimethyl-pyridin-2-yl)-piperazin-1-yl]-phenyl}-2-[5-methyl-1-(2-methyl-oxazol-4-ylmethyl)-3-phenyl-1H-pyrrol-2-yl]-2-oxo-acetamide] | –
